Experimental data from patent US11160750B2, “Composition and method for promoting hair growth” (ZivMas LLC, priority 2017, dated 2021).

Key:
[1] = test system: human follicle derma papilla cells (HFDP); assay: Cell proliferation assay in HFDP cells; assay type: cell-based; conditions: 0.5 ug/ml
Method: Adherent human cell lines were cultured according to standard mammalian tissue culture protocols and sterile technique. Human follicle derma papilla cells were cultured in human follicle dermal papilla cell growth medium, ready to use, low-serum. Keratinocyte cells (HaCaT) were cultured in high glucose Dulbecco's Modified Eagle Medium with 10% serum. Normal human […] cells such as HFF and BJ were culture in BIOAMF-2 complete medium (Biological industries). All media was supplemented with streptomycin ([…]), penicillin (100 U/ml) and Nystatin (12.5 U/ml). Cells were incubated in 5% CO2 at 37° C. All tissue culture were maintained in 25 cm^2 Nunc™ cell culture treated EasYFlask™ (Thermofisher scientific) and all the media and supplements were obtained from Biological Industries. Treatment were performed by plating cells in a Nunc™ 96 micro well delta surface plates (Thermofisher scientific) in a starting confluence of 0.5×10^4 cells/well. After 24 h of incubation the cells were treated with the ZM-26 composition.
Viability of the cells following treatment was determined using a commercially available MTT assay kit (ABCAM, ab146345) and performed according to manufacturer's instructions. […] The quantification was determined by measuring the optical density at 570 nm in an enzyme-linked immunosorbent assay (Spark, Tecan) reader. […]

DHT production = assay: ELISA for DHT detection in male HFDP cells; assay type: cell-based, human; conditions: 5 μM testosterone
Method: Dihydrotestosterone (DHT) detection was performed using the Aviva Systems Biology dihydrotestosterone ELISA kit (OKEH02531). The technique is based on a competitive binding enzyme immunoassay. 96 well plate has been pre-coated with an antibiotinylated dihydrotestosterone antibody. 50 μl of HFDP cells control and treated samples were added to the wells along with 50 μl of 1× dihydrotestosterone-Biotin complex. After incubation at 37° C. for 60 min wells were washed 3 times with 1× Wash buffer and was added to each well 100 μl of Avidin-HRP conjugate solution. Another step of incubation at 37° C. for 45 min and washing with 1× wash buffer was performed. 90 μl of TMB subtract was added and to each well followed by incubation in dark, 37° C. for 15-30 minutes. Finally, 50 μl of a stop solution was added and the quantification was determined by measuring the optical density at 450 nm in an enzyme-linked immunosorbent assay (Spark, Tecan) reader.

Compound: Nc1cc(N2CCCCC2)nc(N)[n+]1[O-] [minoxidil]
- cell viability after 48 h treatment [1]: caused cell death

Compound: C[C@]12CC[C@H]3[C@@H](CCC4=CC(=O)CC[C@@]43C)[C@@H]1CC[C@@H]2O [testosterone]
- DHT levels increase (DHT production): 4.4 fold
